Measurements published in patent publication US12180222B2, “Crystal forms of thiophene derivatives” (Tianjin Hemay Pharmaceutical Co., Ltd, priority 2018, dated 2024).

Tests used:
Format in all cases: physicochemical
[1] = Accelerated stability (40° C. and Rh=75%, liquid chromatogram and DSC)
Method: Crystal form III of (S)—N-[5-[1-(3-ethoxy-4-methoxyphenyl)-2-(methylsulfonyl)ethyl]-4,6-dioxo-5,6-dihydro-4H-thieno[3,4-c]pyrrole-1-yl]acetamide prepared according to the process of Example 1 was placed in a stability text box at 40° C. and Rh=75%. After 1 month, liquid chromatogram and DSC were tested.

[2] = Dissolution rate of crystal form in water; settings: about 25 mg in 900 mL water, 37° C., rotating speed 100/minute
Method: The crystal form III of (S)—N-[5-[l-(3-ethoxy-4-methoxyphenyl)-2-(methylsulfonyl)ethyl]-4,6-dioxo-5,6-dihydro-4H-thieno[3,4-c]pyrrole-1-yl]acetamide prepared according to the process in Example 1 was tested.
About 25 mg of crystal form III of (S)—N-[5-[1-(3-ethoxy-4-methoxyphenyl)-2-(methylsulfonyl)ethyl]-4,6-dioxo-5,6-dihydro-4H-thieno[3,4-c]pyrrole-1-yl]acetamide was added to 900 mL of water. The mixture was stirred at a rotating speed of 100/minute at 37° C. for 90 minutes. The supernatant was filtered and diluted. The concentration of the diluted solution (a mg/mL) was determined by ultraviolet spectrophotometer. The dissolution rate was calculated according to the formula 900a/25×100%.

[3] = Moisture absorption stability / hygroscopicity (RH=80%); settings: RH=80% (saturated ammonium chloride solution) until weight balanced
Method: Moisture absorption of crystal form III of (S)—N-[5-[1-(3-ethoxy-4-methoxyphenyl)-2-(methylsulfonyl)ethyl]-4,6-dioxo-5,6-dihydro-4H-thieno[3,4-c]pyrrole-1-yl]acetamide was studied. Crystal form III of (S)—N-[5-[1-(3-ethoxy-4-methoxyphenyl)-2-(methylsulfonyl)ethyl]-4,6-dioxo-5,6-dihydro-4H-thieno[3,4-c]pyrrole-1-yl]acetamide was placed in a drier containing saturated ammonium chloride solution (RH=80%) until weight was balanced. The crystal form was tested with XRPD.
Crystal form III of (S)—N-[5-[1-(3-ethoxy-4-methoxyphenyl)-2-(methylsulfonyl)ethyl]-4,6-dioxo-5,6-dihydro-4H-thieno[3,4-c]pyrrole-1-yl]acetamide prepared according to the process of Example 1 was tested.

[4] = Aqueous solution balance stability (crystal form by XRPD after equilibrium in water); settings: 37° C., 24 hours
Method: About 0.5 g of crystal form III of (S)—N-[5-[1-(3-ethoxy-4-methoxyphenyl)-2-(methylsulfonyl)ethyl]-4,6-dioxo-5,6-dihydro-4H-thieno[3,4-c]pyrrole-1-yl]acetamide was added to 40 mL of water. The mixture was stirred at 37° C. for 24 hours. The suspension was filtered. After wet solid was dried, crystal form of powders was tested with X-ray powder diffraction (XRPD).

[5] = High temperature stability (sealed oven at 40° C., liquid chromatogram and DSC)
Method: Crystal form III of (S)—N-[5-[1-(3-ethoxy-4-methoxyphenyl)-2-(methylsulfonyl)ethyl]-4,6-dioxo-5,6-dihydro-4H-thieno[3,4-c]pyrrole-1-yl]acetamide prepared according to the process of Example 1 was placed in a sealed oven at 40° C. After 1 month, liquid chromatogram and DSC were tested.

CCOc1cc([C@@H](CS(C)(=O)=O)N2C(=O)c3csc(NC(C)=O)c3C2=O)ccc1OC [Crystal Form III, (S)—N-[5-[1-(3-ethoxy-4-methoxyphenyl)-2-(methylsulfonyl)ethyl]-4,6-dioxo-5,6-dihydro-4H-thieno[3,4-c]pyrrole-1-yl]acetamide]
stability under high-temperature and high-humidity conditions ([1]; 40° C. and Rh=75%, 1 month): good stability | Relevant Substance Contents at Day 0 (%) ([1]; Day 0, before storage at 40° C. RH = 75%): 0.07% | Relevant Substance Contents after 1 Month (%) ([1]; storage 40° C. RH = 75%, 1 month): 0.09% | Dissolution Rate (%) ([2]; time 0 min): 0% | Dissolution Rate (%) ([2]; time 15 min): 32.2% | Dissolution Rate (%) ([2]; time 30 min): 46.3% | Dissolution Rate (%) ([2]; time 45 min): 55.1% | Dissolution Rate (%) ([2]; time 60 min): 61.8% | Dissolution Rate (%) ([2]; time 75 min): 66.5% | Dissolution Rate (%) ([2]; time 90 min): 71.5% | Moisture Absorption %) [3]: 1.17% | Weight Increase ([3]; mAPI 0.511 g): 0.006 g | stability in water [4]: good stability | stability under high temperature conditions ([5]; 40° C., 1 month): good stability | Relevant Substance Contents at Day 0 (%) ([5]; Day 0, before storage at 40° C.): 0.07% | Relevant Substance Contents after 1 Month (%) ([5]; storage 40° C., sealed oven, 1 month): 0.09%
